Measurements from US20220169628A1 (University of Florida Research Foundation, Incorporated, priority 2019, published 2022).

Columns and labels:
MOLT-4 cells = assay: Cell viability assay, MTS, 72 h, MOLT-4; assay type: cell-based; conditions: Homo sapiens; MOLT-4 cells, 72 h, MTS
Protocol: (§1) Cancer cells from different tissue origins including acute lymphoblastic leukemia (MOLT4 and RS4; 11), small cell lung cancer (NCI-H146 or simply H146), and multiple myeloma (EJM and H929) were incubated with increasing concentrations of Examples 1-21 or ABT-263 for 72 h. Cell viability was measured by tetrazolium-based MTS assay. 5×10^4 to 1×10^5 suspension cells or 3×10^3 to 5×10^3 adherent cells were seeded and treated in 96-well plates for 72 h. The EC50 values of individual agents were calculated with GraphPad Prism.

RS4 cells = assay: Cell viability assay, MTS, 72 h, RS4;11; assay type: cell-based; conditions: Homo sapiens
Protocol: as §1

`CC1(CNC(=O)CCCCCNc2cccc3c2C(=O)N(C2CCC(=O)NC2=O)C3=O)CCC(c2ccc(Cl)cc2)=C(CN2CCN(c3ccc(C(=O)NS(=O)(=O)c4ccc(N[C@H](CCN5CCOCC5)CSc5ccccc5)c(S(=O)(=O)C(F)(F)F)c4)cc3)CC2)C1` (stereo partly drawn) [Compound 62, 4-(4-((4′-chloro-4-((6-((2-(2,6-dioxopiperidin-3-yl)-1,3-dioxoisoindolin-4-yl)amino)hexanamido)methyl)-4-methyl-3,4,5,6-tetrahydro-[1,1′-biphenyl]-2-yl)methyl)piperazin-1-yl)-N-((4-(((R)-4-morpholino-1-(phenylthio)butan-2-yl)amino)-3-((trifluoromethyl)sulfonyl)phenyl)sulfonyl)benzamide] gave an IC50 (MOLT-4 cells) of 36 nM and an IC50 (RS4 cells) of 33 nM.
